Data taken from patent publication US8329645B2, “Polymyxin derivatives and uses thereof” (priority 2008, dated 2012).
≈ marks a conversion by molar mass, not a printed value. Like-named read-outs stand apart in the source and are kept apart here. Where a SMILES comes first, the peptide text is derived from it. Bridges are numbered along the chain shown (N, C = ends). [ ]: non-standard residue; d: D form. The star is where a group is joined. Decanoyl = CCCCCCCCCC(=O)*; Octanoyl = CCCCCCCC(=O)*; Dab = NCC[C@H](N)C(=O)O; Abu = CC[C@H](N)C(=O)O

What was measured:
[1] = test system: E. coli IH3080; assay: Growth inhibition around wells on LB agar plates; assay type: cell-based, Escherichia coli
Method in brief: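 Growth inhibition of encapsulated E. coli IH3080 (K1:O018) was assessed on LB agar plates. A suspension of about 10^8 cells/ml in 0.9% NaCl, made from an overnight LB agar culture, was spread across the plate surface and the excess removed. After drying, 2 mm wells were drilled, with 0.9% NaCl as control. Following 18 h at 37° C., inhibition zone diameters around wells were converted to areas in square mm.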

[2] = test system: Pseudomonas aeruginosa ATCC 27853; assay: Growth inhibition around wells on LB agar plates; assay type: cell-based; details: Ps. aeruginosa ATCC 27853
Method in brief: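 Activity against Pseudomonas aeruginosa ATCC 27853 was assessed by agar well diffusion on LB plates. A suspension of about 10^8 cells/ml in 0.9% NaCl was spread over the agar and the excess removed. Once the surface had dried, 2 mm wells were drilled and filled with peptide dissolved in 0.9% NaCl. Plates were incubated 18 h at 37° C, and inhibition zone diameters were converted to areas in square mm.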

[3] = test system: E. coli IH3080; assay: Sensitization to rifampin: growth inhibition around wells on LB plates containing rifampin; assay type: cell-based, Escherichia coli; details: 4 μg of compound
[4] = molecular target: brush-border membrane (BBM) from the renal cortex; assay: Inhibition of binding of radiolabelled gentamycin to brush-border membrane vesicles; details: rat renal cortex BBM vesicles; 20 μM [3H] gentamycin; 60 min at 4° C.
Source text: The binding of the compounds according to this invention to isolated brush-border membrane (BBM) from the renal cortex can be measured indirectly by measuring their ability to inhibit the binding of radiolabelled gentamycin to BBM. Accordingly, the compounds according to this invention that have less affinity to BBM than for example polymyxin B inhibit the binding of radiolabelled gentamycin to a lesser degree than does polymyxin B.
BBM was isolated from the renal cortex of male albino rats by using the Mg^2+/EGTA precipitation technique as described by Nagai et al. (2006). The binding of gentamycin was measured, according to the method described by Nagai et al. (2006) by incubating BBM vesicles (20 μl) in 10 mM HEPES (pH 7.5) with 300 mM mannitol in the presence of 20 μM [^3H] gentamycin (American Radiolabeled Chemicals, Inc. (St. Louis, Mo., U.S.A.) with or without the compound to be tested or a positive control. After an incubation of 60 min at 4° C., 1 ml of ice-cold buffer described above was added, and the mixture was filtered through a Millipore filter (0.45 μm; HAWP). The filter was washed with the buffer and the radioactivity remaining in the filter was measured by using a liquid scintillation counter. The IC50 values were determined as in Nagai et al. (2006) using the Hill equation.

[5] = test system: A. baumannii F263
Protocol: (§1) Polymyxin B sulfate (Sigma-Aldrich, St. Louis, Mo., USA) was used as a control. […] The bacterial test strains originated from ATCC (10 strains), CCUG (11 strains), and NCTC (3 strains). Fourteen (14) strains (the F-strains) were purchased from Mobidiag Ltd., Helsinki, Finland.
(§2) The inocula were prepared by adjusting the bacterial suspensions to a density equivalent to OD546 nm˜0.3 (˜10^8 CFU/ml˜0.5 McFarland) the yeast suspension to a density equivalent to OD546 nm˜0.75 (˜2×10^7 CFU/ml)._The suspensions were diluted to 10^7 CFU/ml. The plates were inoculated by using a Denley Multipoint Inoculator, 1 μl per spot corresponding to approx. 10^4 CFU/spot. Plates were incubated for 16-20 hours at 35° C.

[6] = test system: C. freundii ATCC 8090
Protocol: as §1, §2

[7] = test system: E. cloacae CCUG 52947
Protocol: as §1, §2

[8] = test system: E. coli ATCC 25922
Protocol: as §1, §2

[9] = test system: E. coli CCUG 41424
Protocol: as §1, §2

[10] = test system: E. coli F9
Protocol: as §1, §2

[11] = test system: E. coli NCTC 13351
Protocol: as §1, §2

[12] = test system: E. coli NCTC 13352
Protocol: as §1, §2

[13] = test system: K. pneumoniae F144
Protocol: as §1, §2

[14] = test system: Ps. aeruginosa ATCC 27853; assay: Sensitization to rifampin: growth inhibition around wells on LB plates containing rifampin; assay type: cell-based, Pseudomonas aeruginosa; details: 4 μg

Compound	growth inhibition around a well ([2]; 10 μg)	growth inhibition around a well in the presence of rifampin ([3]; rifampin 0 μg/ml)	growth inhibition around a well in the presence of rifampin ([3]; rifampin 0.1 μg/ml)	growth inhibition around a well in the presence of rifampin ([3]; rifampin 1.0 μg/ml)	IC50 [4]	MIC ([13]; K. pneumoniae F144)	growth inhibition around a well ([2]; 4 μg)	growth inhibition around a well in the presence of rifampin ([14]; rifampin 0 μg/ml)	growth inhibition around a well in the presence of rifampin ([14]; rifampin 0.1 μg/ml)	growth inhibition around a well in the presence of rifampin ([14]; rifampin 0.3 μg/ml)	MIC ([5]; F263)	MIC ([6]; ATCC 8090)	MIC ([7]; CCUG 52947)	MIC ([8]; ATCC 25922)	MIC ([9]; CCUG 41424)	MIC ([10]; F9)	MIC ([11]; NCTC 13351)	MIC ([12]; NCTC 13352)	also measured
Polymyxin B [reference compound]	133 square millimeters	79 square millimeters	95 square millimeters	104 square millimeters	39.3 ± 5.5 µM	1 µg/mL	–	–	–	–	–	–	–	–	–	–	–	–	growth inhibition around a well ([1]; 4 μg of compound per well, listed as Polymyxin B sulfate): 95 square millimeters; MIC ([5]; A. baumannii F263): 1 µg/mL; MIC ([6]; C. freundii ATCC8090): 1 µg/mL; MIC ([7]; E. cloacae CCUG52947): 1 µg/mL; MIC ([8]; E. coli ATCC25922): 1 µg/mL; MIC ([9]; E. coli CCUG41424): 1 µg/mL; MIC ([10]; E. coli F9): 0.5 µg/mL; MIC ([11]; E. coli NCTC13351): 0.5 µg/mL; MIC ([12]; E. coli NCTC 13352): 0.25 µg/mL
CCCCCCCCCC(=O)N[C@H](C(=O)N[C@H](CO)C(=O)N[C@H]1CCNC(=O)[C@H]([C@@H](C)O)NC(=O)[C@H](CCN)NC(=O)[C@H](CCN)NC(=O)[C@H](CC(C)C)NC(=O)[C@@H](Cc2ccccc2)NC(=O)[C@H](CCN)NC1=O)[C@@H](C)O [NAB 740, DA-Thr-DSer-cy[Dab-Dab-DPhe-Leu-Dab-Dab-Thr-]] (Decanoyl-T[dS][Dab][Dab][dF]L[Dab][Dab]T; lactam 3-C)	133 square millimeters	95 square millimeters	95 square millimeters	95 square millimeters	198 ± 49 µM	16(−4) μg/ml	64 square millimeters	64 square millimeters	64 square millimeters	64 square millimeters	2 µg/mL (≈ 1.81 µM)	2 µg/mL (≈ 1.81 µM)	2 µg/mL (≈ 1.81 µM)	2 µg/mL (≈ 1.81 µM)	2 µg/mL (≈ 1.81 µM)	2 µg/mL (≈ 1.81 µM)	1 µg/mL (≈ 0.906 µM)	1 µg/mL (≈ 0.906 µM)	growth inhibition around a well ([1]; 10 μg of compound per well): 133 square millimeters
CCCCCCCC(=O)N[C@H](C(=O)N[C@H](CO)C(=O)N[C@H]1CCNC(=O)[C@H]([C@@H](C)O)NC(=O)[C@H](CCN)NC(=O)[C@H](CCN)NC(=O)[C@H](CC(C)C)NC(=O)[C@@H](Cc2ccccc2)NC(=O)[C@H](CCN)NC1=O)[C@@H](C)O [NAB 739, OA-Thr-DSer-cy[Dab-Dab-DPhe-Leu-Dab-Dab-Thr-]] (Octanoyl-T[dS][Dab][Dab][dF]L[Dab][Dab]T; lactam 3-C)	79 square millimeters	133 square millimeters	177 square millimeters	201 square millimeters	264 ± 91 µM	–	38 square millimeters	38 square millimeters	–	64 square millimeters	4 µg/mL (≈ 3.72 µM)	2 µg/mL (≈ 1.86 µM)	2 µg/mL (≈ 1.86 µM)	1 µg/mL (≈ 0.929 µM)	1 µg/mL (≈ 0.929 µM)	1 µg/mL (≈ 0.929 µM)	–	1 µg/mL (≈ 0.929 µM)	–
CCCCCCCC(=O)N[C@H](C(=O)N[C@@H](CC)C(=O)N[C@H]1CCNC(=O)[C@H]([C@@H](C)O)NC(=O)[C@H](CCN)NC(=O)[C@H](CCN)NC(=O)[C@H](CC(C)C)NC(=O)[C@@H](Cc2ccccc2)NC(=O)[C@H](CCN)NC1=O)[C@@H](C)O [NAB 7061, OA-Thr-Abu-cy[Dab-Dab-DPhe-Leu-Dab-Dab-Thr-]] (Octanoyl-T[Abu][Dab][Dab][dF]L[Dab][Dab]T; lactam 3-C)	0 square millimeters	0 square millimeters	–	–	–	–	0 square millimeters	0 square millimeters	0 square millimeters	0 square millimeters	>32 µg/mL	16 µg/mL (≈ 14.9 µM)	>32 µg/mL	>32 µg/mL	32 µg/mL (≈ 29.8 µM)	>32 µg/mL	>32 µg/mL	32 µg/mL (≈ 29.8 µM)	growth inhibition around a well ([1]; 4 μg of compound per well): 0 square millimeters; MIC ([13]; F144): >32 µg/mL
